Test results published in PubChem BioAssay (NCI).
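Results reflect a 48-hour exposure of cells in 96-well plates to compound at five concentrations. GI50 is the concentration that inhibits growth by half. TGI: concentration producing complete growth inhibition.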

What was measured:
Assay in all cases: inhibition of tumour cell growth, NCI panel, 48 h
BT-549 breast = tested on: BT-549 breast
DU-145 prostate = tested on: DU-145 prostate
HCC-2998 colon = tested on: HCC-2998 colon
MCF7 breast = tested on: MCF7 breast
MDA-MB-435 = tested on: MDA-MB-435
NCI-H226 lung = tested on: NCI-H226 lung
OVCAR-3 ovarian = tested on: OVCAR-3 ovarian
SK-OV-3 ovarian = tested on: SK-OV-3 ovarian
ACHN renal = tested on: ACHN renal

Row | SMILES | TGI (BT-549 breast) [µM] | TGI (DU-145 prostate) [µM] | TGI (HCC-2998 colon) [µM] | TGI (MCF7 breast) [µM] | TGI (MDA-MB-435) [µM] | TGI (NCI-H226 lung) [µM] | TGI (OVCAR-3 ovarian) [µM] | TGI (SK-OV-3 ovarian) [µM] | TGI (ACHN renal) [µM] | GI50 (ACHN renal) [µM] | GI50 (BT-549 breast) [µM] | GI50 (DU-145 prostate) [µM] | GI50 (HCC-2998 colon) [µM] | GI50 (MCF7 breast) [µM] | GI50 (MDA-MB-435) [µM] | GI50 (NCI-H226 lung) [µM] | GI50 (OVCAR-3 ovarian) [µM] | GI50 (SK-OV-3 ovarian) [µM]
1 | CC[C@@]1(O)C(=O)OCc2c1cc1n(c2=O)Cc2c-1nc1ccccc1c2CC[Si](C)(C)C | > 100 | > 100 | 0.713 | > 100 | > 100 | < 0.0467 | 1.4 | 14 | – | – | – | – | – | – | – | – | – | –
2 | CC(=O)Nc1ncc(Sc2ccccc2C(=O)O)s1 | > 100 | > 100 | – | > 100 | > 100 | > 100 | > 100 | – | > 100 | – | – | – | – | – | – | – | – | –
3 | CN1C(c2ccccc2)=CC(=O)C(O)=C(c2ccccc2)S1(=O)=O | > 100 | > 100 | > 100 | > 100 | > 100 | > 100 | > 100 | > 100 | > 100 | – | – | – | – | – | – | – | – | –
4 | COC(=O)C1=Nc2c(C)nn(-c3ccccc3)c2N=C(c2ccc(C)cc2)C1 | > 10 | > 10 | > 10 | > 10 | > 10 | – | > 10 | > 10 | > 10 | – | – | – | – | – | – | – | – | –
5 | CC(C)CCC1(O)O[C@H]2C[C@H]3[C@@H]4CCC5CC(=O)C=C[C@]5(C)[C@H]4CC[C@]3(C)[C@H]2[C@@H]1C (some centres not stated) | 27.3 | 28.2 | 5.86 | 20.3 | 24.5 | 14.8 | 22.9 | 32.9 | 26.6 | – | – | – | – | – | – | – | – | –
6 | O=C1C2C=CC1C1C(=O)OC(=O)C21 (configuration not stated) | > 100 | > 100 | > 100 | > 100 | > 100 | > 100 | > 100 | > 100 | > 100 | – | – | – | – | – | – | – | – | –
7 | COc1ccc2c3c1OC1C(=O)C=CC4(O)C(C2)NCC[C@@]314 (some centres not stated) | 6.32 | 13.1 | 6.1 | 9.17 | 5.79 | 25.7 | 3.99 | 11.2 | 12.6 | – | – | – | – | – | – | – | – | –
8 | CC(C)(C)c1ccc(CN2CCN(C(c3ccccc3)c3ccc(Cl)cc3)CC2)cc1 (configuration not stated) | > 100 | > 100 | 89.4 | > 100 | > 100 | 62.2 | > 100 | > 100 | > 100 | – | – | – | – | – | – | – | – | –
9 | O=C1OCC(C#Cc2ccccc2)=C1Cl | 33.4 | 11.8 | 15.2 | > 100 | 42.6 | 7.13 | 10.8 | > 100 | 6.56 | 2.49 | 7.87 | 1.6 | 3.78 | 1.71 | 6.92 | 3.11 | 1.9 | 37.7
10 | CCCN1C(=O)CCC2=C1CCc1c2ccc(Cl)c1Cl | > 100 | > 100 | 49.8 | > 100 | > 100 | > 100 | 86.7 | 69.1 | > 100 | – | – | – | – | – | – | – | – | –
11 | N#Cc1[nH]c(=O)n(-c2ccc(Cl)cc2)c1N | > 10 | > 10 | > 10 | > 10 | > 10 | > 10 | > 10 | > 10 | > 10 | – | – | – | – | – | – | – | – | –
12 | CC(=O)OCC1OC(n2c(N)c(C#N)c(-c3ccccc3)c(C#N)c2=S)C(OC(C)=O)C(OC(C)=O)C1OC(C)=O (configuration not stated) | > 100 | > 100 | > 100 | > 100 | > 100 | > 100 | > 100 | > 100 | > 100 | – | – | – | – | – | – | – | – | –
13 | COC(=O)CC1(CNC(=O)OCc2ccccc2)OCCO1 | > 100 | > 100 | > 100 | > 100 | > 100 | > 100 | > 100 | > 100 | > 100 | – | – | – | – | – | – | – | – | –
14 | CCOc1ccc2c(c1)/C(=C(\C(Cl)=C(Cl)Cl)[N+](=O)[O-])N2 | > 100 | > 100 | > 100 | > 100 | > 100 | > 100 | > 100 | > 100 | > 100 | – | – | – | – | – | – | – | – | –
15 | Cc1cc(N(CCC#N)CCC#N)ccc1/C(N=Nc1cccc([N+](=O)[O-])c1)=N/NC(=O)c1cc(Cl)ccc1O | 92.7 | > 100 | 93.4 | > 100 | > 100 | > 100 | 59.5 | > 100 | > 100 | – | – | – | – | – | – | – | – | –
16 | CCC1CC2CN3CCc4c([nH]c5c(-c6c(OC)ccc7c8c([nH]c67)[C@]6(C(=O)OC)CC7CC(CC)C6N(CC8)C7)c(O)ccc45)[C@](C(=O)OC)(C2)C13 (some centres not stated) | 33.7 | 28.4 | 27.2 | 22.9 | 23.6 | 22 | 30.9 | 68 | 64 | – | – | – | – | – | – | – | – | –
17 | c1ccc(C2SCC3=Nc4ccccc4CN32)cc1 (configuration not stated) | > 100 | > 100 | > 100 | > 100 | > 100 | – | 22.5 | > 100 | – | – | – | – | – | – | – | – | – | –
18 | O=C(N/N=C1\CCc2ccccc2C1)N/N=C1\CCc2ccccc2C1 | > 10 | > 10 | > 10 | > 10 | > 10 | > 10 | > 10 | – | > 10 | – | – | – | – | – | – | – | – | –
19 | O=C(Oc1ccccc1)c1cc2cc(CCl)ccc2oc1=O | > 100 | 98.7 | 47.1 | > 100 | > 100 | > 100 | > 100 | 83.2 | 21.1 | – | – | – | – | – | – | – | – | –
20 | COc1cc(N=NN(C)C)c(C(C)c2c3cc(OC)c(OC)cc3cc[n+]2C)cc1OC (configuration not stated) | > 100 | > 100 | > 100 | > 100 | > 100 | > 100 | > 100 | > 100 | > 100 | – | – | – | – | – | – | – | – | –
21 | O=C1CCCc2c1c1c(n2Cc2ccccc2)-c2ccccc2C1=O | 55.7 | > 100 | 30.3 | > 100 | 38.2 | 66.1 | 36.7 | > 100 | 30.9 | – | – | – | – | – | – | – | – | –
22 | Nc1nc(Cl)cc(NCC2(CO)CCC(Cc3ccccc3)C2)n1 (configuration not stated) | 78.7 | > 100 | > 100 | 71 | 33.8 | 98.7 | > 100 | > 90.6 | > 100 | – | – | – | – | – | – | – | – | –
23 | C/C(=N\Nc1ccc([N+](=O)[O-])cc1[N+](=O)[O-])c1ccc2ccccc2n1 | > 100 | > 100 | – | > 100 | > 100 | > 100 | – | > 100 | > 100 | – | – | – | – | – | – | – | – | –
